Measurements as given in patent US20040235784A1, “Combination preparations of 3-n-formylhydroxylaminopropyl phosphonic acid derivatives or 3-n-acetylhydroxylaminopropyl phosphonic acid derivatives combined with specific pharmaceutical active agents” (priority 2000, published 2004).

Tested on: Plasmodium falciparum strains Dd2, 3D7 and HB3
Assay: Sensitivity of Plasmodium falciparum to fosmidomycin in combination with different compounds, semi-automatic test by [3H]-hypoxanthin incorporation into parasite DNA
Format: cell-based
Details: drug in combination with fosmidomycin, sum FIC <1 synergism, >1 antagonism, =1 addition
Description: The IC50-values of fosmidomycin and the respective combination partner were determined for the single compounds and in different ratios of mixture on microtitreplates. The results were defined as sum of fractional inhibitory concentration (sum fractional inhibitory concentration, FIC):
sum FIC=IC50 of fosmidomycin in mixture/IC50 of fosmidomycin alone+IC50 of the combination partners in mixture/IC50 of combination partner alone
Sum FIC-values <1 represent synergism, values >1 antargonism and values=1 addition.

| SMILES | sum FIC (P. falciparum strain 3D7) | sum FIC (P. falciparum strain Dd2) | sum FIC (P. falciparum strain HB3) |
| --- | --- | --- | --- |
| CC[C@H]1OC(=O)[C@H](C)[C@@H](O[C@H]2C[C@@](C)(OC)[C@@H](O)[C@H](C)O2)[C@H](C)[C@@H](O[C@@H]2O[C@H](C)C[C@H](N(C)C)[C@H]2O)[C@](C)(O)C[C@@H](C)CN(C)[C@H](C)[C@@H](O)[C@]1(C)O [azithromycin] | 0.74 | 0.86 | 0.85 |
| CCCCN(CCCC)CC(O)c1cc(Cl)cc2c1-c1ccc(Cl)cc1/C2=C/c1ccc(Cl)cc1 (stereo not drawn) [lumefantrin] | 1.21 | 1.20 | 1.08 |
